Assay results published in patent US20170037030A1, “AUTOTAXIN INHIBITORS” (NOVARTIS AG, priority 2014, published 2017).
pIC50: −log10 of the molar value.

Target: T1, Recombinant human ATX (Homo sapiens, UniProt Q13822)
T1 construct: made in house; host or cells: human embryonic kidney (HEK) cells
Assay: ATX inhibition assay (released choline, Amplex Red fluorescence)
Assay type: biochemical
Conditions: ATX 10 nM, LPC 18:1 10 μM, pre-incubated with ATX at 37° C. for 20 minutes; mean of n≧2
Method: Reagents—LPC (oleoyl (18:1)) was purchased from Avert Polar Lipids (Alabaster, Ala.) and solubilized in methanol to 20 mM. Amplex Red was obtained from Invitrogen Life Technologies (Paisley, UK) and dissolved in DMSO to 10 mM. Choline oxidase and horseradish peroxidase (HRP) were obtained from Sigma Aldrich (Dorset, UK) and dissolved in HBSS to 20 U/ml and 200 U/ml respectively. All reagents were stored at −20° C. in single use aliquots. All experimental measurements were performed in assay buffer made up immediately prior to use (HBSS, 0.01% BSA essentially fatty acid free). […]
Method—All experimental measurements were performed in black 384 well polystyrene (low volume, round bottom, Corning (3676)) plates. PerkinElmer EnVision (Fluorescence Intensity/Absorbance Monochromator) or Tecan Infinite 200 PRO series plate reader was used to detect change in fluorescent intensity.
Assessing ATX inhibition—ATX activity was determined by measurement of released choline in reactions containing ATX (10 nM), choline oxidase (0.1 U/ml), HRP (100 U/ml), amplex red (50 μM) and LPC 18:1 (10 μM). […] The liberated choline was measured from changes in fluorescence intensity (Aex 530 nm, Aem 590 nm) of the product resurofin at 37° C. every 2 minutes over a 40-minute period. ATX activity was measured as a slope of the linear portion of the progress curve, typically between 14 to 24 minutes. […]

| Compound | pIC50 |
| --- | --- |
| O=C(CCC(O)c1c[nH]nn1)NC1CCN(C(=O)OCc2cc(Cl)cc(Cl)c2)CC1 (centres unmarked) [Example 2, 3,5-dichlorobenzyl 4-(4-hydroxy-4-(1H-1,2,3-triazol-4-yl)butanamido)piperidine-1-carboxylate] | 8.00 |
| O=C(CCC(=O)c1c[nH]nn1)NC1CCN(C(=O)OCc2cc(Cl)cc(Cl)c2)CC1 [Example 1, 3,5-dichlorobenzyl 4-(4-oxo-4-(1H-1,2,3-triazol-4-yl)butanamido)piperidine-1-carboxylate] | 7.15 |
